Measurements from ChEMBL document CHEMBL1201862, “PubChem BioAssay data set” (2004).
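Grown in 96-well plates, cells were treated for 48 hours with each compound at five concentrations. Insufficient inhibition: endpoint recorded as highest concentration tested. GI50 = concentration required for 50% inhibition of growth.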 Activity calls are given as the source filed them. Cut-off read from the data, not from the text of the source: active = GI50 up to about 1.1 µM and inactive = higher.

Experiments:
Test in all cases: NCI anticancer screen, dose series, 48 h
[1] = tested on: SW-620
[2] = tested on: IGROV-1
[3] = tested on: SK-MEL-2
[4] = tested on: UACC-257
[5] = tested on: OVCAR-8
[6] = tested on: A498
[7] = tested on: KM12
[8] = tested on: OVCAR-3
[9] = tested on: SK-MEL-5
[10] = tested on: EKVX
[11] = tested on: Hs-578T
[12] = tested on: LOX IMVI
[13] = tested on: OVCAR-5
[14] = tested on: NCI-H226
[15] = tested on: U-251
[16] = tested on: HOP-62
[17] = tested on: SK-OV-3
[18] = tested on: CAKI-1
[19] = tested on: NCI-H460
[20] = tested on: HCC 2998

Row | Compound | GI50 [1] | GI50 [2] | GI50 [3] | GI50 [4] | GI50 [5] | GI50 [6] | GI50 [7] | GI50 [8] | GI50 [9] | GI50 [10] | GI50 [11] | GI50 [12] | GI50 [13] | GI50 [14] | GI50 [15] | GI50 [16] | GI50 [17] | GI50 [18] | GI50 [19] | GI50 [20]
1 | CN(C)CCCc1c2ccccc2nc2ccc(Cl)cc12 | 12.9 µM (inactive) | 16.4 µM (inactive) | 19.9 µM (inactive) | 13.3 µM (inactive) | 15.9 µM (inactive) | 19.2 µM (inactive) | 17.9 µM (inactive) | 24.8 µM (inactive) | 14.4 µM (inactive) | 17 µM (inactive) | 16.5 µM (inactive) | 14.2 µM (inactive) | 15.2 µM (inactive) | 24.2 µM (inactive) | 12.2 µM (inactive) | 14.5 µM (inactive) | 20.7 µM (inactive) | 15.2 µM (inactive) | 12.1 µM (inactive) | –
2 | O/N=C1\C=Cc2nn(-c3ccccc3)nc2\C1=N/O | 5.41 µM (inactive) | 2.79 µM (inactive) | 30.3 µM (inactive) | 3.11 µM (inactive) | 3.01 µM (inactive) | – | 4.55 µM (inactive) | 4.67 µM (inactive) | 2.24 µM (inactive) | 5.41 µM (inactive) | 1.85 µM (inactive) | 2.81 µM (inactive) | 7.41 µM (inactive) | 2.1 µM (inactive) | 7.16 µM (inactive) | 4.3 µM (inactive) | 6.35 µM (inactive) | 4.27 µM (inactive) | 3.07 µM (inactive) | 14.5 µM (inactive)
3 | CSc1nc(C)cc(Nc2ccc(O)c(CN3CCCCC3)c2)n1 | 71.9 µM (inactive) | 60.5 µM (inactive) | – | – | > 100 µM (inactive) | 23.1 µM (inactive) | > 100 µM (inactive) | > 100 µM (inactive) | 25.3 µM (inactive) | 27.5 µM (inactive) | > 100 µM (inactive) | 33 µM (inactive) | 28.6 µM (inactive) | 32.4 µM (inactive) | – | > 100 µM (inactive) | > 100 µM (inactive) | > 100 µM (inactive) | – | –
4 | Nc1nc(N)c2nc(CNc3ccc(C(=O)NC(CCNC(=O)c4ccccc4C(=O)O)C(=O)O)cc3)cnc2n1 (stereo not given) | 0.01 µM (active) | < 0.0212 µM (active) | > 100 µM (inactive) | – | 0.01 µM (active) | 0.054 µM (active) | 0.0168 µM (active) | 31.6 µM (inactive) | < 0.0286 µM (active) | > 100 µM (inactive) | > 100 µM (inactive) | 0.01 µM (active) | > 100 µM (inactive) | > 100 µM (inactive) | < 0.0254 µM (active) | < 0.0205 µM (active) | > 100 µM (inactive) | 0.01 µM (active) | 0.01 µM (active) | –
5 | O=C1c2cc3ccccc3cc2C2(c3ccc(Cl)cc3)N[C@H]3CCCC[C@@H]3N12 (stereo not given in full) | 17.4 µM (inactive) | 13.3 µM (inactive) | 16.4 µM (inactive) | 19.4 µM (inactive) | 5.77 µM (inactive) | 18.3 µM (inactive) | 16.9 µM (inactive) | 19.4 µM (inactive) | 16.7 µM (inactive) | 10.9 µM (inactive) | 11.7 µM (inactive) | 19 µM (inactive) | 21 µM (inactive) | – | 14.2 µM (inactive) | 6.79 µM (inactive) | 14.6 µM (inactive) | 22.6 µM (inactive) | 14.9 µM (inactive) | –
6 | C/C1=C\[C@H](C)C[C@H](C)OC(=O)C[C@H](c2ccc(O)cc2)NC(=O)[C@H](Cc2ccc(O)c(I)c2)N(C)C(=O)[C@H](C)NC(=O)[C@@H](C)C1 | 0.00863 µM (active) | 0.0121 µM (active) | 0.0646 µM (active) | – | 0.0137 µM (active) | 0.016 µM (active) | 0.208 µM (active) | 0.0203 µM (active) | 0.0169 µM (active) | 0.0596 µM (active) | 0.0564 µM (active) | 0.00411 µM (active) | 0.131 µM (active) | 0.0153 µM (active) | 0.00944 µM (active) | 0.0252 µM (active) | 0.054 µM (active) | – | – | –
